{"source": "patent US20170112741A1", "about": "“AGENT FOR AMELIORATING SKIN SYMPTOM, HAIR GROWTH AGENT OR SLIMMING AGENT” (GOLDCREST MEDICINE INSTITUTE CO., LTD., priority 2014, published 2017)", "key": {"prolactin level in blood": {"tested_on": "prolactin level in blood", "assay": "Prolactin level in blood of patient A (prolactin-producing pituitary adenoma) during cabergoline treatment", "type": "in vivo, human", "method": "In view of the dramatic improvement of prolactin level, the doctor ordered that the cabergoline administration for the next 1 month be changed to one tablet/week, and oral administration be carried out before sleeping on Thursday. […] As such, the cabergoline administration was maintained at one tablet/week, and the administration period was extended up to 2 months.\nThus, the treatment regimen using cabergoline from August 15 to October 3 was also determined to be oral administration of one tablet (0.25 mg) on Thursday."}, "head hair / bald area": {"tested_on": "head hair / bald area", "assay": "Hair growth on the head of patient A, photographs before and after oral cabergoline", "type": "in vivo, human", "excerpt": "According to the photograph (1) of patient A (FIG. 1) taken at a restaurant during travel in Shonai region of Yamagata Prefecture on Sep. 16, 2010, the head of patient A from the upper forehead to the crown was quite bald. Only a small amount of hair was left right above the forehead. Patient A was […] at the time of taking the photo. Since the cabergoline administration was started on Jun. 20, 2013, patient A was […] at that time, which was 2 years and 9 months after taking the photograph (1), and thus, aging further progressed so that the hair became thinner and the hair loss progressed.\nThe image of the occipital region of patient A taken from the back side on Sep. 16, 2010, is shown in the photograph (2) (FIG. 2).\nIn the period from Jun. 20, 2013 (Thursday) to Jul. 15, 2013 (Monday), one tablet of 0.25 mg cabergoline was orally administered twice per week, on Monday and Thursday, and thus a total of 2 mg of cabergoline was administered over one month. From July 18, the administration of cabergoline was changed from two tablets per week to one tablet per week. The total dose of cabergoline administered from Jul. 18, 2013 to Jan. 20, 2014 was about 6 mg, and thus, the total amount of cabergoline administered after the start of administration was calculated to be 8 mg.\nImages of the frontal region and the occipital region of patient A taken on Feb. 27, 2014 are shown as photograph (3) (FIG. 3) and photograph (4) (FIG. 4), respectively."}, "[1]": {"conditions": "Feb. 27, 2014 vs Sep. 16, 2010, oral cabergoline since Jun. 20, 2013"}}}
{"smiles": "C=CCN1C[C@H](C(=O)N(CCCN(C)C)C(=O)NCC)C[C@@H]2c3cccc4[nH]cc(c34)C[C@H]21", "note": "[cabergoline]", "values": [{"measurement": "prolactin level in blood", "setting": "prolactin level in blood; August 14, after further 4 weeks at one tablet (0.25 mg)/week oral", "value": 47.8, "unit": "ng/mL"}, {"measurement": "prolactin level in blood", "setting": "prolactin level in blood; July 17, after 4 weeks at 2 mg/4 weeks oral, level on April 18 was 20888 ng/mL", "value": 101.8, "unit": "ng/mL"}, {"measurement": "prolactin level in blood (earlier level as restated)", "setting": "prolactin level in blood; level before the decrease seen on August 14", "value": 102, "unit": "ng/mL"}, {"measurement": "Bald area, frontal region of the head (photograph (3))", "setting": "head hair / bald area; [1]", "value": "clearly reduced"}, {"measurement": "Bald area, region from the crown to the occipital region (photograph (4) vs (2))", "setting": "head hair / bald area; [1]", "value": "the bald area was reduced"}, {"measurement": "Hairs in the region from the crown to the occipital region", "setting": "head hair / bald area; [1]", "value": "hairs were increased"}, {"measurement": "Hair in the frontal region of the head (photograph (3))", "setting": "head hair / bald area; Feb. 27, 2014 vs Sep. 16, 2010, oral cabergoline since Jun. 20, 2013, about 8 mg in total by Jan. 20, 2014", "value": "short black hairs were found in the previously bald region"}]}
